Results on 42 compounds are retold here after patent publication US8916702B2 (priority 2012, dated 2014).

For this experiment, the system named is HCV pseudoparticles (genotype 1a HCV E1 and E2 envelope, H77C isolate). Nature of the experiment: microbe, parasite or virus in culture. It counts as cell-based. The following applies: Hepatitis C virus.
The mark [1] stands for this setting: Huh-7, read-out: Activity (EC50 class), HCV pseudoparticles (genotype 1a, H77C) in Huh7 cells, EC50 expressed as class A/B.
Setting [2] is: Huh-7, 48 h, HCV pseudoparticles (genotype 1a, H77C) in Huh7 cells, average of duplicate, luciferase 2 days after infection.
Setting [3] is: Huh-7, 48 h, read-out: Activity (EC50 class), HCV pseudoparticle infection of Huh7 cells, luciferase 2 days after infection, EC50 expressed as class A/B.
[4] abbreviates: Huh-7, 48 h, read-out: Activity (EC50 class), HCV pseudoparticles, Huh7 cells, luciferase 2 days after infection, average of duplicates.
The mark [5] stands for this setting: Huh-7, 48 h, HCV pseudoparticle infection of Huh7 cells, luciferase 2 days after infection, average of duplicates.

Read-outs that look alike come from different tables or passages of the source.

On to `CC(C)(CNC(=O)C(=O)NCc1ccc(-c2ccccc2)cc1)CNC(=O)c1ccc(Nc2nc(NC3(c4ccc(Cl)cc4)CC3)nc(OCC(F)(F)F)n2)cc1` [Compound 3017], for which the EC50 (usually the concentration that produces a half-maximal response) under setting [1] is 0.01 to 10 nM.
On to `O=C(NCCCCNC(=O)c1ccc(Nc2nc(NC3(c4ccc(Cl)cc4)CC3)nc(OCC(F)(F)F)n2)cc1)C(=O)Nc1ccc(F)cc1F` [Compound 3397], for which the EC50 runs as follows: under setting [2], 0.082 nM; under setting [1], 0.01 to 10 nM.
Regarding `CC(C)CNC(=O)C(=O)NCC(C)(C)CNC(=O)c1ccc(Nc2nc(NC3(c4ccc(Cl)cc4)CC3)nc(OCC(F)(F)F)n2)cc1` [Compound 1551], the EC50 under setting [3] fell in the range of 0.01 to 10 nM.
Still for that read-out and setting: the same measure for `CCC(C)CNC(=O)C(=O)NC[C@@H](NC(=O)c1ccc(Nc2nc(NC3(c4ccc(Cl)cc4)CC3)nc(OCC(F)(F)F)n2)cc1)C(=O)O` (stereo partly drawn) [Compound 1044]: 0.01 to 10 nM; for `COC(=O)[C@H](CCNC(=O)C(=O)NC1CCCCC1)NC(=O)c1ccc(Nc2nc(NC3(c4ccc(Cl)cc4)CC3)nc(OCC(F)(F)F)n2)cc1` [Compound 1140]: 0.01 to 10 nM.
With `COC(=O)[C@H](CNC(=O)C(=O)Nc1ccc(N2CCN(C(C)=O)CC2)cc1)NC(=O)c1ccc(Nc2nc(NC3(c4ccc(Cl)cc4)CC3)nc(OCC(F)(F)F)n2)cc1` [Compound 3186], a half-maximal effect under setting [2] (EC50) was put at 0.7 nM and the EC50 under setting [1] is 0.01 to 10 nM.
`COC(=O)[C@H](CCNC(=O)C(=O)NCCc1ccccc1F)NC(=O)c1ccc(Nc2nc(NC3(c4ccc(Cl)cc4)CC3)nc(OCC(F)(F)F)n2)cc1` [Compound 1313]: the EC50 under setting [3] fell in the range of 0.01 to 10 nM.
As for `CN(CCCNC(=O)c1ccc(Nc2nc(NC3(c4ccc(Cl)cc4)CC3)nc(OCC(F)(F)F)n2)cc1)C(=O)C(=O)Nc1ccccc1` [Compound 3450], under setting [1], the EC50 was 0.01 to 10 nM.
The same measure, in the same setting: under `O=C(NC[C@H](NC(=O)c1ccc(Nc2nc(NC3(c4ccc(Cl)cc4)CC3)nc(OCC(F)(F)F)n2)cc1)C(=O)O)C(=O)Nc1ccc(-n2ccnc2)cc1` [Compound 3268] stands 0.01 to 10 nM.
In the case of `COC(=O)/C(CCNC(=O)C(=O)Nc1ccc(Oc2ccccc2)nc1)=N\C(=O)c1ccc(Nc2nc(NC3(c4ccc(Cl)cc4)CC3)nc(OCC(F)(F)F)n2)cc1` [Compound 3593], the EC50 under setting [1] lay in the range of 0.01 to 10 nM.
As to `COC(=O)[C@H](CCNC(=O)C(=O)NCCc1cccc(F)c1)NC(=O)c1ccc(Nc2nc(NC3(c4ccc(Cl)cc4)CC3)nc(OCC(F)(F)F)n2)cc1` [Compound 1312], the EC50 under setting [3] was in the range of 0.01 to 10 nM.
For `O=C(NC[C@H](NC(=O)c1ccc(Nc2nc(NC3(c4ccc(Cl)cc4)CC3)nc(OCC(F)(F)F)n2)cc1)C(=O)Cl)C(=O)Nc1cccc(Cl)c1` [Compound 3741], the EC50 under setting [4] is 0.01 to 10 nM.
For `CC(C)c1ccc(NC(=O)C(=O)NCC[C@H](NC(=O)c2ccc(Nc3nc(NC4(c5ccc(Cl)cc5)CC4)nc(OCC(F)(F)F)n3)cc2)C(=O)O)cc1` [Compound 3550], the EC50 under setting [1] was in the range of 0.01 to 10 nM.
In the case of `COC(=O)[C@H](CCNC(=O)C(=O)NCc1ccccc1OC)NC(=O)c1ccc(Nc2nc(NC3(c4ccc(Cl)cc4)CC3)nc(OCC(F)(F)F)n2)cc1` [Compound 1155], the EC50 under setting [3] lay in the range of 0.01 to 10 nM.
In the case of `Cc1ccc(NC(=O)C(=O)NCC(C)(C)CNC(=O)c2ccc(Nc3nc(NC4(c5ccc(Cl)cc5)CC4)nc(OCc4ccccc4Cl)n3)cc2)cc1` [Compound 3850], the half-maximal effective concentration (EC50) under setting [4] was 0.01 to 10 nM.
For `CC(=O)c1cccc(NC(=O)C(=O)NCC(C)(C)CNC(=O)c2ccc(Nc3nc(NC4(c5ccc(Cl)cc5)CC4)nc(OCC(F)(F)F)n3)cc2)c1` [Compound 3668], under setting [4], the EC50 is 0.01 to 10 nM.
`O=C(NCC[C@H](NC(=O)c1ccc(Nc2nc(NC3(c4ccc(Cl)cc4)CC3)nc(OCC(F)(F)F)n2)cc1)C(=O)O)C(=O)NCc1ccccc1` [Compound 1187]: the EC50 was 0.08 nM under setting [5] and 0.01 to 10 nM under setting [3].
For the compound `COC(=O)[C@H](CNC(=O)C(=O)Nc1ccc(N2CCN(Cc3ccccc3)CC2)cc1)NC(=O)c1ccc(Nc2nc(NC3(c4ccc(Cl)cc4)CC3)nc(OCC(F)(F)F)n2)cc1` [Compound 3102], the concentration for a half-maximal effect (EC50) under setting [1] lay in the range of 0.01 to 10 nM.
Regarding `CC(C)(CNC(=O)C(=O)Nc1ccc(Cl)cc1)CNC(=O)c1ccc(Nc2nc(NC3(c4ccc(Cl)cc4)CC3)nc(OCC(F)(F)F)n2)cc1F` [Compound 3512], the EC50 under setting [1] was 0.01 to 10 nM.
For the compound `CNS(=O)(=O)c1cccc(NC(=O)C(=O)NC[C@H](NC(=O)c2ccc(Nc3nc(NC4(c5ccc(Cl)cc5)CC4)nc(OCC(F)(F)F)n3)cc2)C(=O)OC)c1` [Compound 3727], under setting [4], the EC50 lay within 0.01 to 10 nM.
For the compound `O=C(NCC[C@H](NC(=O)c1ccc(Nc2nc(NC3(c4ccc(Cl)cc4)CC3)nc(OCC(F)(F)F)n2)cc1)C(=O)O)C(=O)NC1CCCCC1O` (stereo partly drawn) [Compound 1113], the EC50 under setting [3] fell in the range of 0.01 to 10 nM.
In the case of `COC(=O)[C@H](CNC(=O)C(=O)Nc1ccc(C2CCCCC2)cc1)NC(=O)c1ccc(Nc2nc(NC3(c4ccc(Cl)cc4)CC3)nc(OCC(F)(F)F)n2)cc1` [Compound 3079], the half-maximal effective concentration (EC50) reads like this: under setting [2], 1.42 nM; under setting [1], 0.01 to 10 nM.
On to `CC(C)(CNC(=O)C(=O)Nc1ccc(C(=O)N2CCCCC2)cc1)CNC(=O)c1ccc(Nc2nc(NC3(c4ccc(Cl)cc4)CC3)nc(OCC(F)(F)F)n2)cc1` [Compound 1568], for which the EC50 under setting [3] lay in the range of 0.01 to 10 nM.
For the compound `Cc1cc(NC(=O)C(=O)N(CCO)CCCNC(=O)c2ccc(Nc3nc(NC4(c5ccc(Cl)cc5)CC4)nc(OCC(F)(F)F)n3)cc2)no1` [Compound 3500], the EC50 under setting [1] is 0.01 to 10 nM.
For `CCOC(=O)[C@H](CCCNC(=O)C(=O)NC)NC(=O)c1ccc(Nc2nc(NC3(c4ccc(Cl)cc4)CC3)nc(OCC(F)(F)F)n2)cc1` [Compound 1030, (S)-ethyl 2-(4-(4-(1-(4-chlorophenyl)cyclopropylamino)-6-(2,2,2-trifluoroethoxy)-1,3,5-triazin-2-ylamino)benzamido)-5-(2-(methylamino)-2-oxoacetamido)pentanoate], the EC50 under setting [3] lay in the range of 0.01 to 10 nM.
As to `CC(C)(CNC(=O)C(=O)Nc1ccc(C(=O)c2ccc(N)cc2)cc1)CNC(=O)c1ccc(Nc2nc(NC3(c4ccc(Cl)cc4)CC3)nc(OCC(F)(F)F)n2)cc1` [Compound 3264], the EC50 is, setting by setting: under setting [2], 0.24 nM; under setting [1], 0.01 to 10 nM.
For the compound `CC(C)CNC(=O)C(=O)N(C)CCCN(C)C(=O)c1ccc(Nc2nc(NC3(c4ccc(Cl)cc4)CC3)nc(OCC(F)(F)F)n2)cc1` [Compound 3431], the EC50 under setting [1] lay within 0.01 to 10 nM.
Consider `COC(=O)[C@H](CNC(=O)C(=O)NCc1cc(F)cc(F)c1)NC(=O)c1ccc(Nc2nc(NC3(c4ccc(Cl)cc4)CC3)nc(OCC(F)(F)F)n2)cc1` [Compound 1138], for which the EC50 under setting [5] turned out to be 0.81 nM and the EC50 under setting [3] is 0.01 to 10 nM.
For `CCOC(=O)[C@H](CNC(=O)C(N)=O)NC(=O)c1ccc(Nc2nc(NC3(c4ccc(Cl)cc4)CC3)nc(OCC(F)(F)F)n2)cc1` [Compound 1025, (S)-ethyl 3-(2-amino-2-oxoacetamido)-2-(4-(4-(1-(4-chlorophenyl)cyclopropylamino)-6-(2,2,2-trifluoroethoxy)-1,3,5-triazin-2-ylamino)benzamido)propanoate] the same measures were 1.73 nM and 0.01 to 10 nM.
With `COC(=O)[C@H](CNC(=O)C(=O)Nc1ccccc1OC)NC(=O)c1ccc(Nc2nc(NC3(c4ccc(Cl)cc4)CC3)nc(OCC(F)(F)F)n2)cc1` [Compound 1256], the EC50 runs as follows: under setting [5], 0.64 nM; under setting [3], 0.01 to 10 nM.
As for `CCOc1ccc(NC(=O)C(=O)NC[C@H](NC(=O)c2ccc(Nc3nc(NC4(c5ccc(Cl)cc5)CC4)nc(OCC(F)(F)F)n3)cc2)C(=O)OC)cc1` [Compound 3210], the EC50 reads like this: under setting [2], 0.75 nM; under setting [1], 0.01 to 10 nM.
As to `CC(C)(CNC(=O)C(=O)Nc1nc2cnccc2s1)CNC(=O)c1ccc(Nc2nc(NC3(c4ccc(Cl)cc4)CC3)nc(OCC(F)(F)F)n2)cc1` [Compound 3808], under setting [4], the EC50 is 0.01 to 10 nM.
Still for that read-out and setting: the same measure for `O=C(NC[C@H](NC(=O)c1ccc(Nc2nc(NC3(c4ccc(Cl)cc4)CC3)nc(OCC(F)(F)F)n2)cc1)C(=O)Cl)C(=O)Nc1ccc(Cl)nc1` [Compound 3739]: 0.01 to 10 nM.
On to `Cc1nccn1-c1ccc(NC(=O)C(=O)NCC[C@H](NC(=O)c2ccc(Nc3nc(NC4(c5ccc(Cl)cc5)CC4)nc(OCC(F)(F)F)n3)cc2)C(=O)O)cc1` [Compound 3541], for which the EC50 under setting [1] was 10 to 1000 nM.
As for `N#Cc1cccc(NC(=O)C(=O)NC[C@H](NC(=O)c2ccc(Nc3nc(NC4(c5ccc(Cl)cc5)CC4)nc(OCC(F)(F)F)n3)cc2)C(=O)Cl)c1` [Compound 3740], under setting [4], the EC50 was in the range of 0.01 to 10 nM.
Take `COC(=O)[C@H](CCNC(=O)C(=O)N[C@H]1C[C@H]2C[C@@H]([C@H]1C)C2(C)C)NC(=O)c1ccc(Nc2nc(NC3(c4ccc(Cl)cc4)CC3)nc(OCC(F)(F)F)n2)cc1` [Compound 1074]: the EC50 under setting [3] lay in the range of 0.01 to 10 nM.
Consider `NC(=O)NCc1ccc(NC(=O)C(=O)NCCC(NC(=O)c2ccc(Nc3nc(NC4(c5ccc(Cl)cc5)CC4)nc(OCC(F)(F)F)n3)cc2)C(=O)O)cc1` (stereo not drawn) [Compound 3535], for which the EC50 under setting [1] is 0.01 to 10 nM.
With `O=C(NC[C@H](NC(=O)c1ccc(Nc2nc(NC3(c4ccc(Cl)cc4)CC3)nc(OCC(F)(F)F)n2)cc1)C(=O)Cl)C(=O)Nc1cccc(C(=O)Nc2ccccc2)c1` [Compound 3747], the concentration for a half-maximal effect (EC50) under setting [4] was 0.01 to 10 nM.
Still for that read-out and setting: under `COC(=O)[C@H](CNC(=O)C(=O)Nc1ccc(OCCN2CCCCC2)nc1)NC(=O)c1ccc(Nc2nc(NC3(c4ccc(Cl)cc4)CC3)nc(OCC(F)(F)F)n2)cc1` [Compound 3736] stands 0.01 to 10 nM.
Regarding `O=C(NCC[C@H](NC(=O)c1ccc(Nc2nc(NC3(c4ccc(Cl)cc4)CC3)nc(OCC(F)(F)F)n2)cc1)C(=O)O)C(=O)NCC1CC1c1cc(F)ccc1F` (stereo partly drawn) [Compound 1442], under setting [3], the EC50 was 0.01 to 10 nM.
Turning to `O=C(NC[C@H](NC(=O)c1ccc(Nc2nc(NC3(c4ccc(Cl)cc4)CC3)nc(OCC(F)(F)F)n2)cc1)C(=O)O)C(=O)NC1Cc2ccccc2C1` [Compound 1403], under setting [3], the EC50 lay within 0.01 to 10 nM.
On the same count and under the same terms, the same measure for `Cc1nccn1CCNC(=O)C(=O)NCC[C@H](NC(=O)c1ccc(Nc2nc(NC3(c4ccc(Cl)cc4)CC3)nc(OCC(F)(F)F)n2)cc1)C(=O)O` [Compound 1344]: 0.01 to 10 nM.
